The values below come from patent US6140330A, “Thiazole derivative” (Otsuka Pharmaceutical Company, Limited, priority 1996, dated 2000).

The target of one test is protein kinase C (PKC). The test is described as follows: Protein Kinase C (PKC) Inhibitory Activity. The settings on record: rat brain PKC, H1 histone substrate, 10 μM [γ-32P]ATP, 30° C., 30 minutes. It is filed as biochemical. Here is the method: (1) Protein Kinase C (PKC) Inhibitory Activity
Method for determining PKC activity:
The purification of PKC using rat's brain soluble fractions was carried out by a method of Kikkawa et al. (cf. Ushio Kikkawa, Yoshimi Takai, Ryoji Minakuchi, Sinichi Inohara and Yasutomi Nishizuka: The Journal of Biological Chemistry, vol. 257, No. 22, pp. 13341-13348 (1982)). PKC activity was determined by the transfer of radio activity from the [γ-^32 P] adenosine triphosphate (ATP) to H1 histone derived from calf thymus in the presence of 20 mM Tris-HCl buffer (pH 7.5), H1 histone derived from calf thymus (200 μg/ml), 10 μM [γ-^32P]ATP, 5 mM magnesium acetate, 8 μg/ml phosphatidyl serine, 2 μg/ml diacylglycerol and 0.3 mM Ca^2+. The test compound was dissolved in dimethylformamide, and the test compound solution was added to the assay system so that the final concentration thereof was adjusted to 0.8%. The reaction mixture was incubated at 30° C. for 30 minutes, and the reaction was quenched with 25% trichloroacetic acid. The acid-insoluble protein was collected on a nitrocellulose membrane by suction filtration. The radio activity of ^32 P was determined by scintillation counter. The PKC inhibitory activity of the test compounds was expressed by IC50, which is a concentration of the test compound to be required to reduce the PKC activity by 50%.

Test [1] is described as follows: Rat Kidney Ischemic Re-perfusion Model. It is filed as in vivo. To be noted: for amount of creatine in the blood / amount of urea nitrogen in the blood: in mg/dL (unit assumed). The procedure: (4) Rat Kidney Ischemic Re-perfusion Model
The right kidney of a SD male rat was taken out, and the left kidney artery was clumped, and then, re-perfused to give a kidney ischemic re-perfusion model. The effect of the compounds of Examples 71, 89 and 100 on the kidney ischemic re-perfusion model was estimated.
The compound of Example 71 was administered intravenously to the rat at a dose of 3 mg/kg 5 minutes before the ischemic. Twenty-four hours later, the blood was collected from the tail vein, and the amounts of creatine and urea nitrogen were determined. The amount of creatine in the blood was 2.19±0.21 (mean±s.e.) in the control group; 1.4±0.11 (mean±s.e.) in the group treated with the compound of Example 71, and the amount of urea nitrogen in the blood was 78.8±5.6 (mean s.e.) in the control group, and 54.1±5.0 (mean±s.e.) in the group treated with the compound of Example 71.
The compound of Example 89 was administered intravenously to the rat at a dose of 3 mg/kg 5 minutes before the ischemic and the re-perfusion. Forty-eight hours later, the blood was collected from the tail vein, and the amounts of creatine and urea nitrogen were determined. The amount of creatine in the blood was 4.31±0.53 (mean±s.e.) in the control group; 2.34±0.46 (mean±s.e.) in the group treated with the compound of Example 89, and the amount of urea nitrogen in the blood was 155.1±15.4 (mean±s.e.) in the control group, and 99.1±16.0 (mean±s.e.) in the group treated with the compound of Example 89.
The compound of Example 100 was administered orally to the rat at a dose of 30 mg/kg one hour before the ischemic. Forty-eight hours later, the blood was collected from the tail vein, and the amounts of creatine and urea nitrogen were determined. The amount of creatine in the blood was 2.48±0.59 (mean±s.e.) in the control group; 1.53±0.20 (mean±s.e.) in the group treated with the compound of Example 100, and the amount of urea nitrogen in the blood was 91.3±20.1 (mean±s.e.) in the control group, and 63.1±10.3 (mean±s.e.) in the group treated with the compound of Example 100.

Test [2] in a line: Phorbol Ester (TPA)-induced Mouse Auricle Edema, Acanthosis Model. It counts as in vivo. The settings on record: mouse (ICR); for increase in the thickness of auricle: after 24 hours, control 215±40 μm, mean±s.e. Here is the method:
(5) Phorbol Ester (TPA)-induced Mouse Auricle Edema, Acanthosis Model
A 200 μg/ml phorbol ester (TPA) (10 μl) was applied to the one side to the ear of a female mouse (ICR). Twenty-four hours later, the thickness of the auricle of the mouse was determined with using a dialthickness gage, and the increase in the thickness of auricle was calculated. A test compound was dissolved in acetone, and the solution of a test compound was applied to the both sides of the ear 30 minutes before the application of TPA.
The compound of Example 88 was applied to the ear at a dose of 20 μl of 0.3% or 1% solution. The increase in the thickness of auricle in the control group is 215±40 μm (mean±s.e.) after 24 hours, while 87±53 μm (mean±s.e.) in the group treated with the compound of Example 88 in 0.3%, and 67±23 μm (mean±s.e.) in the group treated with the compound of Example 88 in 1%.

Test [3] can be described thus: Mouse Atopic Dermatitis Model (TNCB-induced increase in auricle thickness). It counts as in vivo. To be noted: mice (Balb/c), once a day for two weeks. The procedure: (6) Mouse Atopic Dermatitis Model:
1% […] (TNCB), (10 μl) was applied to each side of the ear of female mice (Balb/c), once every two days for 24 days. Twenty-four days later, the mice were grouped, and the auricle thickness of the mouse was determined by using a dial thickness gage, and the increase in the thickness of auricle was calculated. The compounds of Examples 88 and 89 were dissolved in acetone in a concentration of 1%. The compound of Example 182 was dissolved in a mixture of acetone:methanol in a concentration of 0.75%. Twenty-four days after the beginning of the experiment, the solution of a test compound was applied to each side of the ear 30 minutes before and after the application of TNCB, once a day for two weeks.

A further test relates to anti-DNA antibody. The test is described as follows: Mouse cGVHD (chronic graft-versus-host disease model), anti-DNA antibody in blood by ELISA. It is filed as in vivo. The settings on record: mice; for amount of anti-DNA antibody in the blood: mean±s.e. Here is the method:
(3) Mouse cGVHD (chromic Graft-versus-host disease model)
Female mice (DBA/2NCrj) were subjected to an operation of cervical vertebra dislocation, and the spleen was taken out to give the spleen cells preparation. The preparation were adjusted to 37.5×10^7 cells/ml, and administered to the BDF1 female mice on the tail vein at a dose of 200 μl per a mouse. Two weeks later, the blood was collected in the absence of heparin, and anti-DNA antibody therein was determined by ELISA.
The compound of Example 182 was administered orally to the mice at a dose of 30 to 50 mg/kg once a day for two weeks, and the effect of the test compound on cGVHD was determined.
The amount of anti-DNA antibody in the blood was determined with OD405. The amounts of anti-DNA antibody were 0.348±0.111 (mean±s.e.) in the control group, 0.255±0.062 (mean±s.e.) in the group treated with the compound of Example 182 at a dose of 30 mg/kg, and 0.094±0.026 (mean±s.e.) in the group treated with the compound of Example 182 at a dose of 50 mg/kg.
Further, the compound of Example 100 was also administered orally to the mice at 30 mg/kg once a day for two weeks, and the effect of the compound on cGVHD was also determined.
The amount of anti-DNA antibody in the blood was determined with OD405. The amounts of anti-DNA antibody were 0.258±0.084 (mean±s.e.) in the control group, and 0.177±0.061 (mean±s.e.) in the group treated with the compound of Example 100 at a dose of 30 mg/kg.

A short description of a further test: Mouse Collagen Arthritis. To be noted: orally once a day. It counts as in vivo. The procedure:
(2) Mouse Collagen Arthritis
Bovine II-type collagen (provided by Collagen Gijyutsu Kensyukai) (0.1%) was emulsified with Complete Fleund's adjuvant (CFA) (50%) (manufactured by DIFCO, Ltd.), and the emulsion thus obtained was injected intracutaneously to mice at the tail (primary sensitization). Three weeks later, bovine II-type collagen (0.1%) was injected intraperitoneally again to the mice (secondary sensitization). Three weeks later, the swelling of limbs of the mice was observed, and evaluated by four-degree as 0 to 3 each limb. The degree (0 to 3) each limb was added, and the results were used a score of the arthritis. That is, the maximum degree is 12 (degree 3×4 limb). The test compound was administered orally to the mice once a day, which started after two weeks from the primary sensitization.

On protein kinase C (PKC), `CN1CCN(CC2CN(C(=O)/C=C/C(=O)c3ccc(OCC(=O)Nc4nc5ccccc5s4)c(F)c3)CCO2)CC1` (stereo not shown) [Example 71] gave an IC50 of 800 nM. Also, the “amounts of both of creatine and urea nitrogen compared with the control group” value (shortened to “amounts … compared with the control group”) in test [1] (i.v. 3 mg/kg 5 minutes before the ischemic, 24 hours later) was “significantly reduced”. Also, the “amount of creatine in the blood” value in test [1] (i.v. 3 mg/kg 5 minutes before the ischemic, 24 hours later, control 2.19±0.21, mean±s.e.) came out at 1.4±0.11. The “amount of urea nitrogen in the blood” value in test [1] (i.v. 3 mg/kg 5 minutes before the ischemic, 24 hours later, control 78.8±5.6, mean±s.e.) stood at 54.1±5.0.

At protein kinase C (PKC), `COc1cc(C(=O)/C=C/C(=O)N2CCC(N3CCN(C)CC3)CC2)ccc1OCC(=O)Nc1nc2ccccc2s1` [Example 88] came in with an IC50 of 100 nM. The “increase in auricle thickness compared with the control group” value in test [2] (topical 20 μl of 0.3% or 1% solution) is “significantly reduced”. The “increase in the thickness of auricle” value in test [2] (topical 20 μl of 0.3% solution) was 87±53 μm; in test [2] (topical 20 μl of 1% solution), 67±23 μm.

For the compound `COc1cc(C(=O)/C=C/C(=O)N2CCOC(CN3CCN(C)CC3)C2)ccc1OCC(=O)Nc1nc2ccccc2s1` (stereo not shown) [Example 89], at protein kinase C (PKC), the midpoint of inhibition, the IC50, lay at 300 nM. In test [1] (i.v. 3 mg/kg 5 minutes before the ischemic and the re-perfusion, 48 hours later), the “amounts … compared with the control group” value is recorded as “significantly reduced”. Also, the “amount of creatine in the blood” value in test [1] (i.v. 3 mg/kg 5 minutes before the ischemic and the re-perfusion, 48 hours later, control 4.31±0.53, mean±s.e.) turned out to be 2.34±0.46. Further, in test [1] (i.v. 3 mg/kg 5 minutes before the ischemic and the re-perfusion, 48 hours later, control 155.1±15.4, mean±s.e.), the “amount of urea nitrogen in the blood” value came to 99.1±16.0. The “inhibition of the increase in the auricle thickness” value in test [3] (topical 1% in acetone) is reported as “about 25%”.

`COc1cc(C(=O)/C=C/C(=O)N2CCC(N3CCCN(C)CC3)CC2)ccc1OCC(=O)Nc1nc2ccccc2s1` [Example 100] had an IC50 against protein kinase C (PKC) of 300 nM. In the test on anti-DNA antibody (orally 30 mg/kg once a day for two weeks), the “anti-DNA antibody in the blood compared with the control group” value was “reduced the anti-DNA antibody in the blood”. Further, the “amount of anti-DNA antibody in the blood” value with anti-DNA antibody (orally 30 mg/kg once a day for two weeks, control 0.258±0.084) was found to be 0.177±0.061 OD405. The “amounts … compared with the control group” value in test [1] (orally 30 mg/kg one hour before the ischemic, 48 hours later) is “reduced”. Besides, the “amount of creatine in the blood” value in test [1] (orally 30 mg/kg one hour before the ischemic, 48 hours later, control 2.48±0.59, mean±s.e.) amounted to 1.53±0.20. Also, in test [1] (orally 30 mg/kg one hour before the ischemic, 48 hours later, control 91.3±20.1, mean±s.e.), the “amount of urea nitrogen in the blood” value came to 63.1±10.3.

Compound `O=C(COc1ccc(C(=O)/C=C/C(=O)N2CCN(O)CC2)cc1C(F)(F)F)Nc1nc2ccccc2s1` [Example 160] displayed an IC50 against protein kinase C (PKC) of 600 nM. Also, the “score of arthritis in comparison with the control mice” value (shortened to “score of arthritis in comparison”) in “Mouse Collagen Arthritis” (50 mg/kg) is on record as “significantly reduced”.

`COc1cc(OCC(=O)Nc2nc3ccccc3s2)ccc1C(=O)/C=C/C(=O)N1CCC(N2CCCN(C)CC2)CC1` [Example 182] returned an IC50 against protein kinase C (PKC) of 80 nM. For the same compound, the “score of arthritis in comparison” value in the test “Mouse Collagen Arthritis” (30 to 50 mg/kg) is listed as “significantly reduced”. Moreover, the “amount of anti-DNA antibody in the blood” value in the test on anti-DNA antibody (orally 30 mg/kg once a day for two weeks, control 0.348±0.111) is reported as 0.255±0.062 OD405; in the test on anti-DNA antibody (orally 50 mg/kg once a day for two weeks, control 0.348±0.111), 0.094±0.026 OD405. For the same compound, the “anti-DNA antibody in the blood compared with the control group” value in the test on anti-DNA antibody (orally 30 to 50 mg/kg once a day for two weeks) is “reduced the anti-DNA antibody in the blood dose-dependently”. In test [3] (topical 0.75% in acetone:methanol), the “inhibition of the increase in the auricle thickness” value was “about 25%”.

For `Cc1c(OCC(=O)Nc2nc3ccccc3s2)ccc(C(=O)/C=C/C(=O)N2CCC(N3CCCN(C)CC3)CC2)c1C` [Example 192], at protein kinase C (PKC), half-maximal inhibition (IC50) required 800 nM. Besides, the “score of arthritis in comparison” value in the test “Mouse Collagen Arthritis” (50 mg/kg) is given as “significantly reduced”.

Take `Cc1cc(OCC(=O)Nc2nc3ccccc3s2)ccc1C(=O)/C=C/C(=O)N1CCC(N2CCCN(C)CC2)CC1` [Example 197]: at protein kinase C (PKC), the IC50 was 300 nM. Also, in the test “Mouse Collagen Arthritis” (50 mg/kg), the “score of arthritis in comparison” value was “significantly reduced”.

For orientation: IC50 means the midpoint of a concentration-inhibition curve. Lower therefore signals inhibition by little substance.
